From patent publication US20220008397A1, “PHARMACEUTICAL COMPOSITION FOR THE TREATMENT OF OCULAR NEOVASCULARISATION” (NOVALIQ GMBH, priority 2019, published 2022)

Legend:
choroidal angiogenesis = assay: In vitro model of choroidal angiogenesis; type: cell-based; conditions: 20 ng/mL and 4 ng/mL
Experimental: The antiangiogenic effect of Tacrolimus was also tested in an in vitro model of choroidal angiogenesis and compared with dexamethasone.

[1] = system: BMDMs (bone marrow derived macrophages); assay: In vitro study using BMDMs (culture of bone marrow derived macrophages), expression of angiogenic growth factors; type: cell-based
[2] = Tamura et al., 2002; cited from earlier work

With `C=CC[C@@H]1/C=C(\C)C[C@H](C)C[C@H](OC)[C@H]2O[C@@](O)(C(=O)C(=O)N3CCCC[C@H]3C(=O)O[C@H](/C(C)=C/[C@@H]3CC[C@@H](O)[C@H](OC)C3)[C@H](C)[C@@H](O)CC1=O)[C@H](C)C[C@@H]2OC` [Tacrolimus] as the molecule, how does the “Dose dependence of the suppression of choroidal angiogenesis in vitro” value (choroidal angiogenesis; 100 ng/mL) read?
The value was “not dose-dependent”.

And the “Effect on choroidal angiogenesis in vitro” value (choroidal angiogenesis; tacrolimus at 100 ng/mL)?
The value was “suppressed choroidal angiogenesis”.

What about the “Expression of pro-angiogenic growth factors” value [1] of the same molecule?
Its value is “can reduce the expression of pro-angiogenic growth factors”.

And the “Ability to penetrate tissue barrier upon topical administration” value [2]?
Its value is “poor ability to penetrate tissue barrier”.
